In assay [1] the target is T1, acyl-CoA:cholesterol acyltransferase (ACAT) (Oryctolagus cuniculus, UniProt G1SFD9).
T1 construct: tissue preparation containing rabbit intestinal microsomes; from tissue; host or cells: rabbit intestinal microsomes
T1 sequence (G1SFD9 1-524): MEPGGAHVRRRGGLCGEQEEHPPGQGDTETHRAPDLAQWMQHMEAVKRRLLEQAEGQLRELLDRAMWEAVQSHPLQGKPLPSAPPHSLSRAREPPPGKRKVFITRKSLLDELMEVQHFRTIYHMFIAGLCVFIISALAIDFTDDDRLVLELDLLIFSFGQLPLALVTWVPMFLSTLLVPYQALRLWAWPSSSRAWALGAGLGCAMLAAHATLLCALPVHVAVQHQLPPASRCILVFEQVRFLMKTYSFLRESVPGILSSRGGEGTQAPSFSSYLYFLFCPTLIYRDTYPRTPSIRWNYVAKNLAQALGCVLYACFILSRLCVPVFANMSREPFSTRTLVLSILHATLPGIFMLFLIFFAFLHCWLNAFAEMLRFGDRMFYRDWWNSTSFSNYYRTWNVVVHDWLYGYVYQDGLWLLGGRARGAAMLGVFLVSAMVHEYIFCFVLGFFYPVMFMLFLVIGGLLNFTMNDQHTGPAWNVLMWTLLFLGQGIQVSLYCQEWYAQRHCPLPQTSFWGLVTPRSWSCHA
In words: in vitro inhibition of ACAT (cholesterol esterification by radio-labeled oleic acid, rabbit intestinal microsomes). The class given is biochemical. The text has this: The test assesses the ability of a compound to inhibit the acylation of cholesterol by oleic acid by measuring the amount of radio-labeled cholesterol oleate formed from radio-labeled oleic acid in a tissue preparation containing rabbit intestinal microsomes.

Another assay has as its system total cholesterol. In words: cholesterol-fed rat test. The note with it: drug admixed in diet with 5.5% peanut oil, 1.5% cholesterol and 0.3% cholic acid, one week, nonfasted. The class given is in vivo, male, Sprague-Dawley rats. The text has this: In the cholesterol-fed rat test, male, Sprague-Dawley rats (approximately 200 g body weight) were randomly divided into groups and provided ad libitum a regular rat chow diet (Purina No. 5002) supplemented with 5.5% peanut oil, 1.5% cholesterol and 0.3% cholic acid, with or without drug admixed at the indicated levels (w/w). After one week, the animals (nonfasted) were etherized and blood was taken from the heart into EDTA (0.14% final concentration) to measure total cholesterol using the Abbott VP Analyzer.

The subject of the next assay is serum cholesterol. In words: cholesterol-fed rabbit test. The class given is in vivo, male, New Zealand white rabbits. The note with it: oral 50 mg/kg thirty minutes prior to each meal for seven days, serum cholesterol three hours after last meal. The source says:
In the cholestrol-fed rabbit test, male, New Zealand white rabbits weighing approximately 1 kg were fed a normal diet 40 g per day of rabbit chow (Purina NO. 5321, Ralston Purina Co., 711 West Fuesser Road, Mascoutah, Ill., 62224, USA). After six days on this diet, the rabbits were fed 50 g per day for three days of a cholsterol-enriched diet consisting of one part of a cholesterol-containing chow (Purina Catalog No. 841206WLI, 0.25% cholesterol) and two parts of normal chow. Next, the rabbits were fed 60 g per day for four days of a cholsterol-enriched diet consisting of two parts of a cholesterol-containing chow (Purina Catalog No. 841206WLI, 0.25% cholesterol) and one part of normal chow.
After this meal adaptation and cholesterol loading period, the test compounds of this invention were administered to the test animals in oral doses of 50 mg/kg of body weight thirty minutes prior to each meal for seven days. Control animals were administered vehicle only.
The animals were sacrificed three hours after their last meal in the postabsorptive state. Serum cholesterol levels were determined for each animal, and the data appear in Table 2 expressed as percent change in serum cholesterol level compared to control.

Each structure is given as a SMILES string.

For orientation: IC50 means the midpoint of a concentration-inhibition curve. The low end stands for inhibition by little substance, the high end for a need for much substance. `CCCCCCCCCCCCC(CC)C(=O)Nc1c(OC)ncnc1OC` (centres unmarked) [N-(4,6-Dimethoxy-5-pyrimidinyl)-2-ethyltetradecanamide] yielded an IC50 in assay [1] of 260 nM.

In the case of `CCCCCCCC/C=C\CCCCCCCCC(C)(C)C(=O)Nc1c(OC)cc(OC)cc1OC` [(Z)-2,2-Dimethyl-N-(2,4,6-trimethoxyphenyl)-11-eicosenamide], the IC50 in assay [1] was 110 nM.

As to `CCCCCCCCCCCCCCC(C)(C)C(=O)NC(C)c1ccccn1` (centres unmarked) [2,2-Dimethyl-N-[1-(2-pyridinyl)ethyl]hexadecanamide], in assay [1], the IC50 was 700 nM.

In turn, `CCCCCCCCCCCCC(C)C(=O)NC(C)c1ccccn1` (centres unmarked) [2-Methyl-N-[1-(2-pyridinyl)ethyl]tetradecanamide] yielded an IC50 in assay [1] of 800 nM. The IC50 values of the last two molecules are within 1.5-fold of each other.

In assay [1], `CCCCCCCCCCC1(C(=O)Nc2c(OC)cc(OC)cc2OC)CCCC1` [1-Decyl-N-(2,4,6-trimethoxyphenyl)cyclopentanecarboxamide] came in with an IC50 of 7 nM. For the same molecule, the “Percent Reduction in Cholesterol, Rat” value in the assay on total cholesterol is listed as -52%.

With `CCCCCCCCCCC(C)(C)C(=O)Nc1c(OC)cc(OC)cc1OC` [2,2-Dimethyl-N-(2,4,6-trimethoxyphenyl)dodecanamide], in the assay with serum cholesterol, the “Percent Reduction in Cholesterol, Rabbit (percent change in serum cholesterol level compared to control)” value is listed as -67%. The “Percent Reduction in Cholesterol, Rat” value with total cholesterol is recorded as -54%.

In assay [1], `CCCCCCCCCCCCC(C)C(=O)Nc1c(OCC)ncnc1OCC` (centres unmarked) [N-(4,6-Diethoxy-5-pyrimidinyl)-2-methyltetradecanamide] returned an IC50 of 500 nM.

The molecule `CCCCCCCC/C=C\CCCCCCC(C)C(=O)Nc1c(OC)cc(OC)cc1OC` (centres unmarked) [(Z)-2-methyl-N-(2,4,6-trimethoxyphenyl)-9-octadecenamide] came in with an IC50 in assay [1] of 34 nM.

With `CCCCCCCCCCC(Cc1ccccc1)C(=O)NC(C)c1ccccn1` (stereo not drawn) [α-Decyl-N-[1-(2-pyridinyl)ethyl]benzenepropanamide], inhibition in assay [1] was half-maximal at 7000 nM (IC50).

In assay [1], `CCCCCCCCCCCCC(C)C(=O)Nc1c(OC)ncnc1OC` (centres unmarked) [N-(4,6-dimethoxy-5-pyrimidinyl)-2-methyltetradecanamide] yielded an IC50 of 400 nM. Besides, the “Percent Reduction in Cholesterol, Rabbit (percent change in serum cholesterol level compared to control)” value in the assay with serum cholesterol is on record as -29%.

In assay [1], `CCCCCCCCCCC(C)(C)C(=O)Nc1c(C)cccc1OCC` [N-(2-Ethoxy-6-methylphenyl)-2,2-dimethyl-dodecanamide] returned an IC50 of 230 nM.

For the molecule `CCCCCCCC/C=C\CCCCCCCCC(C)(C)C(=O)Nc1c(OC)ncnc1OC` [(Z)-N-(4,6-dimethoxy-5-pyrimidinyl)-2,2-dimethyl-11-eicosenamide], inhibition in assay [1] was half-maximal at 780 nM (IC50).

In the case of `CCCCCCCCCCC(CCC)C(=O)NC(C)c1ccccn1` (centres unmarked) [2-Propyl-N-[1-(2-pyridinyl)ethyl]dodecanamide], the midpoint of inhibition in assay [1], the IC50, lay at 3700 nM.

For `CCCCCCCCCCCCC(C)(C)C(=O)Nc1c(OC)ncnc1OC` [N-(4,6-dimethoxy-5-pyrimidinyl)-2,2-dimethyltetradecanamide], the IC50 in assay [1] came out at 1300 nM.

On to `CCCCCCCCCCC(CC)C(=O)NC(C)c1ccccn1` (centres unmarked) [2-Ethyl-N-[1-(2-pyridinyl)ethyl]dodecanamide], for which the IC50 in assay [1] worked out at 1600 nM.

`CCCCCCCC/C=C\CCCCCCCCC(C)(C)C(=O)Nc1c(C)cccc1OC` [(Z)-N-(2-Methoxy-6-methylphenyl)-2,2-dimethyl-11-eicosenamide] gave an IC50 in assay [1] of 680 nM. Against the preceding molecule, the IC50 is about 2.4-fold lower.

The molecule `CCCCCCCCCCC(C)C(=O)NC(C)c1ccccn1` (centres unmarked) [2-Methyl-N-[1-(2-pyridinyl)ethyl]dodecanamide] showed an IC50 in assay [1] of 3300 nM. Against the preceding molecule, the IC50 is about 4.9-fold higher.

Regarding `CCCCCCCCCCC(C)(C)C(=O)Nc1c(OC)ncnc1OC` [N-(4,6-Dimethoxy-5-pyrimidinyl)-2,2-dimethyldodecanamide], the IC50 in assay [1] turned out to be 230 nM. This IC50 is about 14-fold lower than that of the molecule before.

For `CCCCCCCCCCCCC(C)C(=O)Nc1c(OC)cc(OC)cc1OC` (centres unmarked) [2-Methyl-N-(2,4,6-trimethoxyphenyl)tetradecanamide], in the assay with serum cholesterol, the “Percent Reduction in Cholesterol, Rabbit (percent change in serum cholesterol level compared to control)” value is on record as -45%. The “Percent Reduction in Cholesterol, Rat” value in the assay with total cholesterol is listed as -52%.

`CCCCCCCCCCCCC(CC)C(=O)NC(C)c1ccccn1` (centres unmarked) [2-ethyl-N-[1-(2-pyridinyl)ethyl]tetradecanamide] registered an IC50 in assay [1] of 700 nM.

In assay [1], `CCCCCCCCCCCCCCC(C)C(=O)NC(C)c1ccccn1` (centres unmarked) [2-methyl-N-[1-(2-pyridinyl)ethyl]hexadecanamide] came in with an IC50 of 1400 nM.

As to `CCCCCCCCCCCCC(CC)C(=O)Nc1c(OC)cc(OC)cc1OC` (centres unmarked) [2-Ethyl-N-(2,4,6-trimethoxyphenyl)tetradecanamide], 50 nM corresponded to half-maximal inhibition in assay [1] (IC50).

The values above are taken from patent publication US4716175A, “Saturated fatty acid amides as inhibitors of acyl-CoA:cholesterol acyltransferase” (Warner-Lambert Company, priority 1987, dated 1987).
